Assay results published in ChEMBL document CHEMBL1250491, “Multivariate QSAR study on the antimutagenic activity of flavonoids against 3-NFA on Salmonella typhimurium TA98” (2010).

Tested on: Salmonella typhimurium
Assay: Antimutagenic activity in Salmonella Typhimurium TA98 assessed as inhibition of 3-nitrofluoranthene-induced mutation by Ames test
Format: functional, Salmonella enterica subsp. enterica serovar Typhimurium

| Structure (SMILES) | pID50 |
| --- | --- |
| O=C1C[C@@H](c2ccc(O)cc2)Oc2cc(O)cc(O)c21 [NARINGENIN] | 5.886 |
| C[C@@H]1O[C@@H](OC[C@H]2O[C@@H](Oc3c(-c4ccc(O)c(O)c4)oc4cc(O)cc(O)c4c3=O)[C@H](O)[C@@H](O)[C@@H]2O)[C@H](O)[C@H](O)[C@H]1O [RUTIN] | 5.022 |
| O=c1cc(-c2ccc(O)c(O)c2)oc2cc(O[C@@H]3O[C@H](CO)[C@@H](O)[C@H](O)[C@H]3O)cc(O)c12 [GALUTEOLIN] | 5.092 |
| COc1ccc(-c2cc(=O)c3c(OC)c(OC)c(OC)c(OC)c3o2)cc1 [TANGERETIN] | 4.967 |
| O=c1cc(-c2ccccc2)oc2ccc(O)cc12 [6-HYDROXYFLAVONE] | 6.699 |
| O=c1c(O)c(-c2ccc(O)cc2)oc2cc(O)cc(O)c12 [KAEMPFEROL] | 6.538 |
| COc1cc(-c2oc3cc(O)cc(O)c3c(=O)c2O)ccc1O [ISORHAMNETIN] | 6.097 |
| O=c1cc(-c2ccccc2)oc2cccc(O)c12 [5-HYDROXYFLAVONE] | 5.357 |
| O=c1c(O)c(-c2cc(O)c(O)c(O)c2)oc2cc(O)cc(O)c12 [MYRICETIN] | 6.222 |
| O=c1c(O)c(-c2ccc(O)cc2O)oc2cc(O)cc(O)c12 [MORIN] | 6.155 |
| COc1ccc([C@@H]2CC(=O)c3c(O)cc(O)cc3O2)cc1O [HESPERETIN] | 6.097 |
| O=c1c(O)c(-c2ccccc2)oc2ccccc12 [FLAVONOL] | 6.538 |
| O=c1cc(-c2ccc(O)cc2)oc2cc(O[C@@H]3O[C@H](CO)[C@@H](O)[C@H](O)[C@H]3O)cc(O)c12 [APIGETRIN] | 5.62 |
| COc1ccc2oc(-c3ccccc3)c(O)c(=O)c2c1 | 5.62 |
| O=c1cc(-c2ccc(O)cc2)oc2cc(O)cc(O)c12 [APIGENIN] | 7 |
| O=c1c(O)c(-c2ccc(O)c(O)c2)oc2cc(O)cc(O)c12 [QUERCETIN] | 5.143 |
| COc1ccccc1-c1cc(=O)c2ccccc2o1 | 5.046 |
| O=c1cc(-c2ccccc2)oc2cc(O)cc(O)c12 [CHRYSIN] | 6 |
| O=c1cc(-c2ccccc2)oc2cc(O)ccc12 [7-HYDROXYFLAVONE] | 5.456 |
